Experimental data as given in US20050113284A1, “Drug for regenerating tissue and vessel and method therefor” (priority 2001, published 2005).
One block for each molecule: values may come before it.

What was measured:
MERMUC = MERMUC protein phosphorylation in [32P]-labelled MERMUC/293 cells; assay type: cell-based, human; settings: for phosphorylation of MERMUC upon growth factor stimulation: MERMUC overexpressing cells cultured without Dox, HGF 20ng/ml, 5 min
Experimental: After labeling the Tet-Off/MERMUC expressing recombinant cells (MERMUC/293 cells) produced above with (^32P] orthophosphate, the cells were stimulated with human recombinant HGF (20ng/ml; 5 min). Next, cell lysate was prepared by lysing cells according to conventional method. Anti-human MERMUC polyclonal antibody prepared as above (Example 2) was added to and reacted with the obtained cell lysate, bound to protein-G Sepharose, and then MERMUC protein and anti-MERMUC polyclonal antibody complex was precipitated by centrifugation.
The precipitate was extracted with 1% SDS and similar immunoprecipitation procedure was performed to reduce the background. The sample prepared by this procedure was separated by SDS-PAGE and analyzed by autoradiography.
Furthermore, MERMUC expression in the above mentioned recombinant cells was confirmed to be constant regardless of the presence or absence of HGF by Western blotting according to conventional method using anti-human MERMUC polyclonal antibody.
The following experiments were conducted similarly as described above: • 1) epidermal growth factor (EGF) was used in place of HGF; • 2) MERMUC expressing cells were treated with HGF signaling suppressor, PI3 kinase inhibitor (LY294002; 10 μM; CALBIOCHEM), before HGF stimulation; • 3) MERMUC expressing cells were treated with HGF signaling suppressor, MEK 1/2 inhibitor (U0126; 10 μM; CALBIOCHEM), before HGF stimulation; • 4) MERMUC expressing cells were treated with PI3 kinase inhibitor (LY294002; 10 μM) before EGF stimulation; and • 5) MERMUC expressing cells were treated with MEK 1/2 inhibitor (U0126; 10 μM) before EGF stimulation.

liver = test: HGF-dependent liver enlargement in MERMUC-Tg and non-Tg mice; assay type: in vivo; settings: human HGF expression plasmid 28 μg/mouse into tail vein, two days
Source text: It has been reported that HGF is transiently overexpressed in vivo by the injection of HGF expression plasmid DNA into the tail vein of normal mice, causing liver enlargement due to the enhancement of hepatocyte proliferation (Hepatology, 2001, Vol. 33, p848-859). Therefore, to validate the down-regulation activity of MERMUC on HGF receptor mediated signaling, the method in the above mentioned report was applied to MERMUC overexpressing transgenic mice (MERMUC-Tg; 7 weeks old; male; 23-33 g) produced in the previous Example, and the effect due to the expression of MERMUC on liver enlargement induced by HGF overexpression was examined. Human HGF expression plasmid (human HGF-cDNA in pcDNA3; Invitrogen) or plasmid pcDNA3 (mock) was injected into the tail vein of each of MERMUC-Tg mouse and littermate non-Tg mouse at a concentration of 28 μg/mouse (2.3 ml saline) within 5 to 10 seconds. The HGF level in serum of each of the mice was measured using a human HGF ELISA kit (Genzyme Techne) two days after the plasmid injection. The level of HGF production due to the administered plasmid in each animal was evaluated together with the changes in liver weight upon laparotomy.

hepatocytes = test: Growth factor dependent proliferation of primary hepatocytes of MERMUC-Tg and non-Tg mice; assay type: cell-based, mouse; settings: 24 hr
Experimental: Primary cell culture of hepatocytes from liver cells obtained from the liver of each of the MERMUC-Tg mice (8 weeks old, 4 mice) and non-Tg mice (8 weeks old, 4 mice) was prepared by collagenase treatment according to the method of Berry and Friend, and Seglen et al. (Berry & Friend, J. Cell Biol., 1969, Vol. 43, p. 506-520; Seglen et al., Methods in Cell Biol., 1976, Vol. 13, p. 29-83).
Each of the obtained hepatocytes (2×10^3 cells) was cultured in serum-free media for 15 hr, HGF (0, 1 or 3 ng/ml) was added to the media to induce HGF-dependent cell proliferation, and was further cultured. Similarly, cultivation was performed by adding epidermal growth factor (EGF; 0, 1, or 10 ng/ml) in place of HGF to the culture as a control.
After 24 hr from HGF addition, cell numbers were counted using Cell Count Reagent SF (Nacalai tesque) according to the experimental protocol provided with the reagent to calculate the relative cell proliferation rate after HGF (or EGF) addition. Tests were conducted in triplicate.

[1] = system: C-terminal region of human MERMUC (bait-2, bait-3); test: Yeast two hybrid screening of human kidney cDNA library with MERMUC baits; assay type: binding; settings: bait-2 = 123 amino acid portion of the C-terminus of human MERMUC
Experimental: Specifically, yeast two hybrid system (Proc. Natl. Acad. Sci. USA., 1991, Vol.88, p.9578-9582) was performed to screen a human kidney cDNA library using cDNA corresponding to the C-terminal region of the human MERMUC as the bait (that is, fishing bait).
Two kinds of bait (bait-2 and bait-3) were designed using each of Ex.-2 and Ex.-3 as the core. Bait-2 corresponds to a 123 amino acid portion of the C-terminus (bait-2) and bait-3 corresponds to the 65 C-terminal amino acids (bait-3).
Each bait vector was obtained by inserting each DNA fragment obtained by digesting each of the PCR products with the restriction enzymes EcoRI and SalI into the EcoRI/SalI site of pGBKT7 vector (leucine biosynthesis gene as a marker; CLONTECH). In yeast, the gene within the vector is produced as a fusion protein ([fusion protein A]) with the DNA binding region (GAL4-DB) of the yeast transcription factor GAL4.
On the other hand, each cDNA of the human kidney derived cDNA library (CLONTECH) that is used for the screening with the bait vector is inserted in pADK vector (tryptophan biosynthesis gene as a marker). Therefore, proteins produced through the expression of each of these cDNAs in yeast are produced as a fusion protein ([fusion protein B]) with the GAL4 transcriptional activation region (GAL4-AD). […]

[2] = target: T1, HGF receptor c-Met β chain (Homo sapiens, UniProt P08581); test: Yeast two-hybrid binding of MERMUC bait proteins to c-Met prey (C-terminal 91 amino acids); settings: prey clone No. 3-309 (C-terminal 91 amino acids of human c-Met)
T1 construct: expressed in transfected cells; host or cells: yeast AH109 strain (library prey plasmid, human kidney cDNA library, CLONTECH)
Experimental: The present examination was performed using the previously reported yeast two-hybrid system (references are described above) according to conventional method and the experimental protocols provided with the reagents. […]
The binding ability of MERMUC bait protein derived from each of the bait vectors to the HGF receptor c-Met β chain was analyzed by the yeast two-hybrid system described above. […]
Each of the bait vectors was cointroduced into yeast AH109 strain with human HGF receptor c-Met prey vector (comprising DNA encoding the C-terminal 91 amino acids of the c-Met; Example 1). The binding ability of each of the bait proteins (randomly selected 10 amino acids of the human MERMUC C-terminal region) to the C-terminal region of human c-Met β chain was analyzed by the yeast two-hybrid system similar to the aforementioned Example.

T1 sequence (P08581 1300-1390): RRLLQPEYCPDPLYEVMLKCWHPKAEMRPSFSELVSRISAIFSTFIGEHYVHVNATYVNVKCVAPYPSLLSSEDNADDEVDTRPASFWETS
C-terminal region of human MERMUC (bait-2, bait-3), sequence (Q8N307 587-709): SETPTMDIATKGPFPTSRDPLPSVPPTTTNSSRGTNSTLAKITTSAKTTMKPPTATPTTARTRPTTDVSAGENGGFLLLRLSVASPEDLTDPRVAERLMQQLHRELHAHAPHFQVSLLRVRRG

Molecule: HGF: hepatocyte growth factor, ligand of c-Met; in b422 supplied by human HGF expression plasmid (human HGF-cDNA in pcDNA3)
phosphorylation of MERMUC upon growth factor stimulation (MERMUC): strong signal band | increase of the ratio of liver weight to body weight (liver; MERMUC-Tg mice): about 1.2 times | increase of the ratio of liver weight to body weight (liver; non-Tg mice): about 1.6 times | proliferation due to HGF stimulation of hepatocytes (hepatocytes; MERMUC-Tg derived hepatocytes compared with non-Tg, HGF 0, 1 or 3 ng/ml): significant decrease

Molecule: N#CC(=C(/N)Sc1ccccc1N)/C(C#N)=C(/N)Sc1ccccc1N [MEK 1/2 inhibitor, U0126, reference compound]
suppression of the enhancement of MERMUC phosphorylation (MERMUC; cells treated with inhibitor 10 μM before HGF stimulation): suppressed only in the cells treated with PI3 kinase inhibitor

Molecule: EGF: epidermal growth factor, used as control in place of HGF
phosphorylation of MERMUC upon growth factor stimulation (MERMUC): did not show effect to increase phosphorylation of MERMUC | EGF stimulated hepatocyte proliferation (hepatocytes; MERMUC-Tg and non-Tg hepatocytes, EGF 0, 1 or 10 ng/ml): dosage-dependent cell proliferation

binding ability to the protein derived from bait-2 [1]: had binding ability
Molecule: clone No. 2-211: prey protein: C-terminal 56 amino acids (amino acids 448-503 of SEQ ID NO: 10) of human MERMUC (VSAGENGGFLLLRLSVASPEDLTDPRVAERLMQQLHRELHAHAPHFQVSLLRVRRG; listed as Homo sapiens)

binding activity to the HGF receptor c-Met β chain [2]: possessed the binding activity
Molecule: C53: MERMUC bait protein, C-terminal 53 amino acids of C260; amino acids 451-503 of SEQ ID NO: 10 (GENGGFLLLRLSVASPEDLTDPRVAERLMQQLHRELHAHAPHFQVSLLRVRRG; listed as Homo sapiens)
